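Five concentrations, 48 hours, 96-well plates. GI50: concentration for 50% inhibition of growth. The concentration for full growth arrest is given as TGI.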
What was measured:
Assay in all cases: inhibition of tumour cell growth, NCI panel, 48 h
SF-268 CNS = system: SF-268 CNS
SW-620 colon = system: SW-620 colon
DU-145 prostate = system: DU-145 prostate
A498 renal = system: A498 renal
UO-31 renal = system: UO-31 renal
SR leukemia = system: SR leukemia
CCRF-CEM leukemia = system: CCRF-CEM leukemia
HS 578T breast = system: HS 578T breast
PC-3 prostate = system: PC-3 prostate
HCT-15 colon = system: HCT-15 colon
IGROV1 ovarian = system: IGROV1 ovarian
MCF7 breast = system: MCF7 breast
OVCAR-3 ovarian = system: OVCAR-3 ovarian
NCI-H460 lung = system: NCI-H460 lung
UACC-257 melanoma = system: UACC-257 melanoma
OVCAR-8 ovarian = system: OVCAR-8 ovarian
NCI-H23 lung = system: NCI-H23 lung
ACHN renal = system: ACHN renal
A549 NSCLC = system: A549 NSCLC
SF-295 CNS = system: SF-295 CNS
HOP-92 NSCLC = system: HOP-92 NSCLC
HCT-116 colon = system: HCT-116 colon
HL-60(TB) leukemia = system: HL-60(TB) leukemia
KM12 colon = system: KM12 colon
SK-MEL-28 melanoma = system: SK-MEL-28 melanoma
SK-MEL-5 melanoma = system: SK-MEL-5 melanoma
BT-549 breast = system: BT-549 breast
NCI-H226 lung = system: NCI-H226 lung
SK-OV-3 ovarian = system: SK-OV-3 ovarian
RPMI-8226 leukemia = system: RPMI-8226 leukemia
K-562 leukemia = system: K-562 leukemia
RXF 393 renal = system: RXF 393 renal
SNB-75 CNS = system: SNB-75 CNS
SF-539 CNS = system: SF-539 CNS
U251 CNS = system: U251 CNS
MOLT-4 leukemia = system: MOLT-4 leukemia
786-0 renal = system: 786-0 renal
SNB-19 CNS = system: SNB-19 CNS
MDA-MB-435 = system: MDA-MB-435
EKVX NSCLC = system: EKVX NSCLC
OVCAR-5 ovarian = system: OVCAR-5 ovarian
COLO 205 colon = system: COLO 205 colon
OVCAR-4 ovarian = system: OVCAR-4 ovarian
MALME-3M melanoma = system: MALME-3M melanoma
SK-MEL-2 melanoma = system: SK-MEL-2 melanoma
HT29 colon = system: HT29 colon
UACC-62 melanoma = system: UACC-62 melanoma
TK-10 renal = system: TK-10 renal
LOX IMVI melanoma = system: LOX IMVI melanoma
HOP-62 NSCLC = system: HOP-62 NSCLC
CAKI-1 renal = system: CAKI-1 renal
NCI-H522 lung = system: NCI-H522 lung
SN12C renal = system: SN12C renal
T-47D breast = system: T-47D breast
HCC-2998 colon = system: HCC-2998 colon
MDA-MB-231 breast = system: MDA-MB-231 breast
NCI/ADR-RES ovarian = system: NCI/ADR-RES ovarian
M14 melanoma = system: M14 melanoma

## COc1ccc(Nc2nc(N)c(C(=O)c3ccccc3)s2)cc1
SF-268 CNS
  TGI: > 58.1 µM
SW-620 colon
  TGI: > 100 µM
DU-145 prostate
  TGI: > 72.8 µM
A498 renal
  TGI: > 72.5 µM
UO-31 renal
  TGI: 44.2 µM
SR leukemia
  TGI: 14.5 µM
CCRF-CEM leukemia
  TGI: > 80.6 µM
HS 578T breast
  TGI: 3.18 µM
PC-3 prostate
  TGI: > 62.4 µM
HCT-15 colon
  TGI: 26.2 µM
IGROV1 ovarian
  TGI: 37 µM
MCF7 breast
  TGI: > 100 µM
OVCAR-3 ovarian
  TGI: > 100 µM
NCI-H460 lung
  TGI: 19.9 µM
UACC-257 melanoma
  TGI: > 100 µM
OVCAR-8 ovarian
  TGI: > 100 µM
NCI-H23 lung
  TGI: > 60.3 µM
ACHN renal
  TGI: > 100 µM
A549 NSCLC
  TGI: > 74.5 µM
SF-295 CNS
  TGI: > 100 µM
HOP-92 NSCLC
  TGI: > 92.7 µM
HCT-116 colon
  TGI: 3.38 µM
HL-60(TB) leukemia
  TGI: 0.271 µM
KM12 colon
  TGI: > 19.8 µM
SK-MEL-28 melanoma
  TGI: > 100 µM
SK-MEL-5 melanoma
  TGI: 4.01 µM
BT-549 breast
  TGI: > 84.5 µM
NCI-H226 lung
  TGI: 29.5 µM
SK-OV-3 ovarian
  TGI: > 100 µM
RPMI-8226 leukemia
  TGI: 32.7 µM
K-562 leukemia
  TGI: > 100 µM
RXF 393 renal
  TGI: 24.2 µM
SNB-75 CNS
  TGI: 0.33 µM
SF-539 CNS
  TGI: 0.0327 µM
U251 CNS
  TGI: > 100 µM
MOLT-4 leukemia
  TGI: > 61.7 µM
786-0 renal
  TGI: 31.6 µM
SNB-19 CNS
  TGI: > 100 µM
MDA-MB-435
  TGI: > 100 µM
EKVX NSCLC
  TGI: 58.2 µM
OVCAR-5 ovarian
  TGI: > 78.4 µM
COLO 205 colon
  TGI: 0.333 µM
OVCAR-4 ovarian
  TGI: > 60.8 µM
MALME-3M melanoma
  TGI: > 100 µM
SK-MEL-2 melanoma
  TGI: 32.2 µM
HT29 colon
  TGI: 15.4 µM
UACC-62 melanoma
  TGI: > 100 µM
TK-10 renal
  TGI: > 100 µM
LOX IMVI melanoma
  TGI: > 100 µM
HOP-62 NSCLC
  TGI: > 100 µM
CAKI-1 renal
  TGI: 33.3 µM
NCI-H522 lung
  TGI: > 100 µM
SN12C renal
  TGI: 66.3 µM
T-47D breast
  TGI: > 100 µM

## C/C=C1\C(=O)O[C@@H]2C1C[C@@H]1O[C@H]2[C@H](C)CCC/C(C)=C/CC[C@@]1(C)O (stereo not given in full)
SF-268 CNS
  GI50: 8.45 µM
  TGI: 23 µM
SW-620 colon
  GI50: 4.14 µM
  TGI: 15 µM
UO-31 renal
  GI50: 3.02 µM
  TGI: 10.4 µM
SR leukemia
  GI50: 2410 nM
  TGI: > 100 µM
CCRF-CEM leukemia
  GI50: 3.53 µM
  TGI: 11.8 µM
PC-3 prostate
  GI50: 11.8 µM
  TGI: 25.8 µM
HCT-15 colon
  GI50: 5.51 µM
  TGI: 21.8 µM
IGROV1 ovarian
  GI50: 1290 nM
  TGI: 3.32 µM
MCF7 breast
  GI50: 2330 nM
  TGI: 6.1 µM
OVCAR-3 ovarian
  GI50: 1480 nM
  TGI: 11.9 µM
NCI-H460 lung
  GI50: 4.81 µM
  TGI: 25.7 µM
UACC-257 melanoma
  GI50: 4.2 µM
  TGI: 10.9 µM
OVCAR-8 ovarian
  GI50: 2520 nM
  TGI: 6.76 µM
ACHN renal
  GI50: 2770 nM
  TGI: 14.5 µM
A549 NSCLC
  GI50: 10.6 µM
  TGI: 22.5 µM
SF-295 CNS
  GI50: 13.3 µM
  TGI: 27.6 µM
HOP-92 NSCLC
  GI50: 7.62 µM
  TGI: 31.5 µM
HCC-2998 colon
  GI50: 2950 nM
  TGI: 6.33 µM
MDA-MB-231 breast
  GI50: 8.36 µM
  TGI: 21.7 µM
HCT-116 colon
  GI50: 2810 nM
  TGI: 10.1 µM
HL-60(TB) leukemia
  GI50: 5.55 µM
  TGI: > 100 µM
KM12 colon
  GI50: 13.9 µM
  TGI: 31.7 µM
SK-MEL-28 melanoma
  GI50: 380 nM
  TGI: 21.9 µM
SK-MEL-5 melanoma
  GI50: 3.03 µM
  TGI: 9.4 µM
SK-OV-3 ovarian
  GI50: 14.1 µM
  TGI: 37.4 µM
RPMI-8226 leukemia
  GI50: 3.27 µM
  TGI: > 100 µM
K-562 leukemia
  GI50: 9.72 µM
  TGI: > 100 µM
RXF 393 renal
  GI50: 2590 nM
  TGI: 6.99 µM
SNB-75 CNS
  GI50: 9.81 µM
  TGI: 33.4 µM
SF-539 CNS
  GI50: 2520 nM
  TGI: 6.06 µM
U251 CNS
  GI50: 10.3 µM
  TGI: 23.6 µM
NCI/ADR-RES ovarian
  GI50: 3.89 µM
  TGI: 13.4 µM
MOLT-4 leukemia
  GI50: 4.59 µM
  TGI: > 100 µM
786-0 renal
  GI50: 3.21 µM
  TGI: 14.2 µM
SNB-19 CNS
  GI50: 19.4 µM
  TGI: 40.6 µM
MDA-MB-435
  GI50: 6.67 µM
  TGI: 22.9 µM
EKVX NSCLC
  GI50: 2220 nM
  TGI: 5.53 µM
OVCAR-5 ovarian
  GI50: 13.5 µM
  TGI: 26.8 µM
COLO 205 colon
  GI50: 8.16 µM
  TGI: 41.8 µM
MALME-3M melanoma
  GI50: 3.47 µM
  TGI: 18.5 µM
SK-MEL-2 melanoma
  GI50: 3.66 µM
  TGI: 13.2 µM
HT29 colon
  GI50: 25.4 µM
  TGI: > 100 µM
UACC-62 melanoma
  GI50: 7.16 µM
  TGI: 20.7 µM
TK-10 renal
  GI50: 4.46 µM
  TGI: 13.5 µM
LOX IMVI melanoma
  GI50: 5.8 µM
  TGI: 21.5 µM
CAKI-1 renal
  GI50: 3.47 µM
  TGI: 15.4 µM
NCI-H522 lung
  GI50: 2290 nM
  TGI: 7.06 µM
SN12C renal
  GI50: 3.54 µM
  TGI: 13 µM
T-47D breast
  GI50: 42.7 µM
  TGI: > 100 µM

## COc1ccc2[nH]cc(/C=C3/C(=O)Nc4ccc(Cl)cc43)c2c1
A498 renal
  GI50: > 100 µM
  TGI: > 100 µM
CCRF-CEM leukemia
  GI50: 5.97 µM
  TGI: > 100 µM
HL-60(TB) leukemia
  GI50: > 100 µM
  TGI: > 100 µM
KM12 colon
  GI50: 0.352 µM
  TGI: > 100 µM
MOLT-4 leukemia
  GI50: > 100 µM
  TGI: > 100 µM
OVCAR-5 ovarian
  GI50: > 100 µM
  TGI: > 100 µM

## CN(C)CCCn1c(-c2cc(C(C)(C)C)c(O)c(C(C)(C)C)c2)csc1=Nc1ccccc1
SF-268 CNS
  TGI: 3.95 µM
SW-620 colon
  TGI: > 100 µM
A498 renal
  TGI: 6.94 µM
M14 melanoma
  TGI: 3.84 µM
PC-3 prostate
  TGI: 3.58 µM
HCT-15 colon
  TGI: 9.05 µM
OVCAR-3 ovarian
  TGI: 3.04 µM
NCI-H460 lung
  TGI: 6.58 µM
UACC-257 melanoma
  TGI: 3.39 µM
NCI-H23 lung
  TGI: 3.73 µM
ACHN renal
  TGI: 9.14 µM
A549 NSCLC
  TGI: 3.46 µM
SF-295 CNS
  TGI: 3.26 µM
HCC-2998 colon
  TGI: 3.65 µM
MDA-MB-231 breast
  TGI: 20.8 µM
HL-60(TB) leukemia
  TGI: 8.76 µM
KM12 colon
  TGI: 3.6 µM
SK-MEL-28 melanoma
  TGI: 4.73 µM
BT-549 breast
  TGI: 7.8 µM
NCI-H226 lung
  TGI: 3.59 µM
SK-OV-3 ovarian
  TGI: 3.94 µM
RXF 393 renal
  TGI: 4.01 µM
SNB-75 CNS
  TGI: 8.34 µM
SF-539 CNS
  TGI: 3.38 µM
NCI/ADR-RES ovarian
  TGI: 3.45 µM
MOLT-4 leukemia
  TGI: 0.547 µM
SNB-19 CNS
  TGI: 4.52 µM
MDA-MB-435
  TGI: 5 µM
EKVX NSCLC
  TGI: 4.26 µM
OVCAR-5 ovarian
  TGI: 4.19 µM
SK-MEL-2 melanoma
  TGI: 8.51 µM
UACC-62 melanoma
  TGI: 4.62 µM
TK-10 renal
  TGI: 5.45 µM
HOP-62 NSCLC
  TGI: 3.34 µM
CAKI-1 renal
  TGI: 52.4 µM
SN12C renal
  TGI: 6.15 µM
